How the values were obtained:
Type in all cases: in vivo
[1] = tested on: field corn (Zea mays L., var. Dekalb 535, CORN); assay: Pre-emerge test, crop safety; conditions: pre-emerge, 14 days after application, rating scale 0-100
Summary of the method: (§1)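 Sandy loam pots; pre-emerge: sown 1 d pre-spray, surface-watered after, then bottom-watered. Post-emerge: sown 8–21 d before, 2–3 leaf stage, + 0.25% v/v NIS, bottom-watered. Acetone, 187 l/ha track spray, 15–1000 g ai/ha. 0–100 injury score, day 14.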

[2] = tested on: upland rice (Oryza sp., var. Tebonnet, RICE); assay: Pre-emerge test, crop safety; conditions: pre-emerge, 14 days after application, rating scale 0-100
Summary of the method: as §1

[3] = tested on: redroot pigweed (Amaranthus retroflexus, AMARE); assay: Pre-emerge test, greenhouse herbicide activity screening; conditions: pre-emerge, 14 days after application, rating scale 0-100
Summary of the method: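 Rating: 0–100 visual injury, 14 DAA. Application: acetone, 187 l/ha, 15–1000 g ai/ha, flat-fan track sprayer with nozzle 40–45 cm above soil or canopy. Post-emerge runs used 0.25% v/v surfactant on 2–3 leaf plants.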

[4] = tested on: lambsquarters (Chenopodium album, CHEAL); assay: as above; conditions: pre-emerge, 14 days after application, rating scale 0-100
Summary of the method: (§2)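 Compounds in acetone were track-sprayed at 15-1000 g ai/ha (187 l/ha) on sandy loam pots: pre-emerge one day after seeding, post-emerge at 2-3 leaf stage with 0.25% v/v non-ionic surfactant. Phytotoxicity was rated 14 days later on a 0 (no damage) to 100 (complete death) scale.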

[5] = tested on: velvetleaf (Abutilon theophrasti, ABUTH); assay: as above; conditions: pre-emerge, 14 days after application, rating scale 0-100
Summary of the method: as §2

[6] = tested on: green foxtail (Setaria viridis, SETVI); assay: as above; conditions: pre-emerge, 14 days after application, rating scale 0-100
Summary of the method: as §2

[7] = tested on: large crabgrass (Digitaria sanguinalis, DIGSA); assay: as above; conditions: pre-emerge, 14 days after application, rating scale 0-100
Summary of the method: as §2

[8] = tested on: ivyleaf morningglory (Ipomoea hederacea, IPOHE); assay: as above; conditions: pre-emerge, 14 days after application, rating scale 0-100
Summary of the method: as §2

[9] = tested on: barnyardgrass (Echinochloa crus-galli, ECHCG); assay: as above; conditions: pre-emerge, 14 days after application, rating scale 0-100
Summary of the method: as §2

[10] = tested on: sicklepod (Cassia obtusifolia, CASOB); assay: as above; conditions: pre-emerge, 14 days after application, rating scale 0-100
Summary of the method: as §2

[11] = tested on: johnsongrass (Sorghum halepense, SORHA); assay: as above; conditions: pre-emerge, 14 days after application, rating scale 0-100
Summary of the method: as §2

[12] = tested on: field corn (Zea mays L., var. Dekalb 535, CORN); assay: Post-emerge test, crop safety; conditions: rating scale 0-100 (0 no damage, 100 complete death), 14 days after application
Summary of the method: as §2

[13] = tested on: upland rice (Oryza sp., var. Tebonnet, RICE); assay: Post-emerge test, crop safety; conditions: rating scale 0-100 (0 no damage, 100 complete death), 14 days after application
Summary of the method: as §2

[14] = tested on: lambsquarters (Chenopodium album, CHEAL); assay: Post-emerge test, greenhouse herbicide activity screening; conditions: rating scale 0-100 (0 no damage, 100 complete death), 14 days after application
Summary of the method: (§3)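 Fourteen days after spraying, crop and weed injury was graded visually from 0, no effect, to 100, every plant dead. Test substances were dissolved in acetone and applied at 15–1000 g ai/ha with a flat-fan nozzle. Application was either pre-emergence, one day after sowing, or post-emergence at the 2–3 leaf stage.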

[15] = tested on: velvetleaf (Abutilon theophrasti, ABUTH); assay: as above; conditions: rating scale 0-100 (0 no damage, 100 complete death), 14 days after application
Summary of the method: as §3

[16] = tested on: common ragweed (Ambrosia artemisizfolia L., AMBEL); assay: as above; conditions: rating scale 0-100 (0 no damage, 100 complete death), 14 days after application
Summary of the method: as §3

[17] = tested on: green foxtail (Setaria viridis, SETVI); assay: as above; conditions: rating scale 0-100 (0 no damage, 100 complete death), 14 days after application
Summary of the method: as §3

[18] = tested on: large crabgrass (Digitaria sanguinalis, DIGSA); assay: as above; conditions: rating scale 0-100 (0 no damage, 100 complete death), 14 days after application
Summary of the method: as §3

[19] = tested on: ivyleaf morningglory (Ipomoea hederacea, IPOHE); assay: as above; conditions: rating scale 0-100 (0 no damage, 100 complete death), 14 days after application
Summary of the method: as §3

[20] = tested on: barnyardgrass (Echinochloa crus-galli, ECHCG); assay: as above; conditions: rating scale 0-100 (0 no damage, 100 complete death), 14 days after application
Summary of the method: as §3

[21] = tested on: sicklepod (Cassia obtusifolia, CASOB); assay: as above; conditions: rating scale 0-100 (0 no damage, 100 complete death), 14 days after application
Summary of the method: as §3

[22] = tested on: redroot pigweed (Amaranthus retroflexus, AMARE); assay: as above; conditions: rating scale 0-100 (0 no damage, 100 complete death), 14 days after application
Summary of the method: as §3

[23] = tested on: johnsongrass (Sorghum halepense, SORHA); assay: as above; conditions: rating scale 0-100 (0 no damage, 100 complete death), 14 days after application
Summary of the method: as §3

CCOC(=O)C(Cl)(C#N)Cc1c(OC)c(Cl)cc(F)c1-n1c(=O)cc(C(F)(F)F)n(C)c1=O (stereo not shown) [14-51]
100: phytotoxicity rating AMARE ([3]; 63 g ai/ha) | phytotoxicity rating AMARE ([3]; 250 g ai/ha) | phytotoxicity rating CHEAL ([4]; 250 g ai/ha) | phytotoxicity rating ABUTH ([5]; 250 g ai/ha)
90: phytotoxicity rating CHEAL ([4]; 63 g ai/ha)
0: phytotoxicity rating CORN ([1]; 63 g ai/ha) | phytotoxicity rating CORN ([1]; 250 g ai/ha) | phytotoxicity rating RICE ([2]; 63 g ai/ha) | phytotoxicity rating RICE ([2]; 250 g ai/ha) | phytotoxicity rating SETVI ([6]; 63 g ai/ha) | phytotoxicity rating SETVI ([6]; 250 g ai/ha) | phytotoxicity rating DIGSA ([7]; 63 g ai/ha) | phytotoxicity rating DIGSA ([7]; 250 g ai/ha) | phytotoxicity rating IPOHE ([8]; 63 g ai/ha) | phytotoxicity rating ECHCG ([9]; 63 g ai/ha) | phytotoxicity rating ECHCG ([9]; 250 g ai/ha) | phytotoxicity rating CASOB ([10]; 63 g ai/ha) | phytotoxicity rating CASOB ([10]; 250 g ai/ha) | phytotoxicity rating SORHA ([11]; 63 g ai/ha) | phytotoxicity rating SORHA ([11]; 250 g ai/ha) | Post-emerge phytotoxicity rating CORN (crop damage) ([12]; Rate 63 g ai/ha) | Post-emerge phytotoxicity rating CORN (crop damage) ([12]; Rate 250 g ai/ha) | Post-emerge phytotoxicity rating RICE (crop damage) ([13]; Rate 63 g ai/ha) | Post-emerge phytotoxicity rating RICE (crop damage) ([13]; Rate 250 g ai/ha) | Post-emerge Herbicidal Activity, phytotoxicity rating CHEAL ([14]; Rate 63 g ai/ha) | Post-emerge Herbicidal Activity, phytotoxicity rating ABUTH ([15]; Rate 63 g ai/ha) | Post-emerge Herbicidal Activity, phytotoxicity rating AMBEL ([16]; Rate 63 g ai/ha) | Post-emerge Herbicidal Activity, phytotoxicity rating SETVI ([17]; Rate 63 g ai/ha) | Post-emerge Herbicidal Activity, phytotoxicity rating SETVI ([17]; Rate 250 g ai/ha) | Post-emerge Herbicidal Activity, phytotoxicity rating DIGSA ([18]; Rate 63 g ai/ha) | Post-emerge Herbicidal Activity, phytotoxicity rating DIGSA ([18]; Rate 250 g ai/ha) | Post-emerge Herbicidal Activity, phytotoxicity rating IPOHE ([19]; Rate 63 g ai/ha) | Post-emerge Herbicidal Activity, phytotoxicity rating CASOB ([21]; Rate 63 g ai/ha) | Post-emerge Herbicidal Activity, phytotoxicity rating CASOB ([21]; Rate 250 g ai/ha) | Post-emerge Herbicidal Activity, phytotoxicity rating AMARE ([22]; Rate 63 g ai/ha) | Post-emerge Herbicidal Activity, phytotoxicity rating AMARE ([22]; Rate 250 g ai/ha) | Post-emerge Herbicidal Activity, phytotoxicity rating SORHA ([23]; Rate 63 g ai/ha) | Post-emerge Herbicidal Activity, phytotoxicity rating SORHA ([23]; Rate 250 g ai/ha)
30: Post-emerge Herbicidal Activity, phytotoxicity rating IPOHE ([19]; Rate 250 g ai/ha)
10: phytotoxicity rating ABUTH ([5]; 63 g ai/ha) | Post-emerge Herbicidal Activity, phytotoxicity rating CHEAL ([14]; Rate 250 g ai/ha) | Post-emerge Herbicidal Activity, phytotoxicity rating ECHCG ([20]; Rate 63 g ai/ha)
50: phytotoxicity rating IPOHE ([8]; 250 g ai/ha) | Post-emerge Herbicidal Activity, phytotoxicity rating ABUTH ([15]; Rate 250 g ai/ha)
20: Post-emerge Herbicidal Activity, phytotoxicity rating AMBEL ([16]; Rate 250 g ai/ha) | Post-emerge Herbicidal Activity, phytotoxicity rating ECHCG ([20]; Rate 250 g ai/ha)

From US6355799B1, “Substituted benzene compounds, process for their preparation, and herbicidal and defoliant compositions containing them” (ISK Americas Incorporated, priority 1997, dated 2002)
